Patent publication US12517131B2, “Methods for labeling eukaryotic cells from a multicellular organism as well as for treating and/or diagnosing a cancer using modified monosaccharide compounds” (DIAMIDEX, priority 2019, dated 2026)

Tests used:
Experiment in all cases: Comparison of labeling of Ara-N3 and KDO-N3
Type in all cases: cell-based, human
Settings in all cases: same conditions as in example 2
[1] = tested on: HeLa
[2] = tested on: Raw
[3] = tested on: Macrophages

Measured: labelling of cells (fluorescence intensity)

[N-]=[N+]=NC[C@@H](O)[C@@H](O)[C@H](O)[C@H](O)CC(=O)C(=O)O [KDO-N3, 8-azido-3,8-dideoxy-D-manno-octulosonic acid]
not labelled: all assays above
